According to US10077261B2, “Imidazolin-5-one derivative useful as FASN inhibitors for the treatment of cancer” (Janssen Pharmaceutica NV, priority 2012, dated 2018):

Key:
[1] = test system: PC-3M-Luc-C6 prostate cells; experiment: In vitro PC-3M-Luc-C6 prostate cell proliferation assay in lipid reduced medium; assay type: cell-based; conditions: 96 h, read-out: pIC50 PC-3M-Luc-C6 prostate cell (converted)
[2] = biological target: Fatty Acid Synthase Keto-reductase Domain (FASN KR) (Homo sapiens, UniProt P49327); experiment: Fatty Acid Synthase keto-reductase domain (FASN KR) inhibition, NADPH oxidation at 340 nm
Method: After 20 minutes incubation at room temperature the plate was measured again (T2).
The decrease in absorbance was calculated as (Absorbance before incubation T1)−(Absorbance following incubation T2).
A plot of Controlmin versus test compound concentration was fitted to a 4-parameter logistic curve using a non-linear least squares regression method.

A2780 ovarian cells [3] = experiment: A2780 ovarian cell proliferation assay in lipid reduced medium, with palmitate (MTT); assay type: cell-based; conditions: Homo sapiens, A2780, 96 h; read-out: pIC50 A2780 Ovarian Cell, With Palmitate (converted)
In short: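 Seeded cells were switched next day to lipid-reduced serum, exposed to compound and 25 μM palmitate complexed with fatty-acid-free BSA, and incubated 96 h. Proliferation was then determined by MTT absorbance at 544 nm, with a best-fit curve of signal against concentration.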

[4] = test system: LNCaP-Vancouver prostate cells; experiment: In vitro LNCaP Vancouver prostate cell proliferation assay in lipid reduced medium; assay type: cell-based; conditions: read-out: pIC50 LNCaP_Vancouver prostate cell (converted)
[5] = biological target: T1, hFASN enzyme (full length) (Homo sapiens, UniProt P49327); experiment: Fatty Acid Synthase (FASN) inhibition scintillation proximity assay; assay type: biochemical; conditions: for inhibition at 10 µM: read-out: Human FASN % inhibition @ 10 μM, 10 μM test compound; for IC50: read-out: Human FASN pIC50 (converted)
T1 construct: 10 μL hFASN enzyme (full length, 300 ng, purified in house); made in house
In short: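 Purified full-length hFASN (300 ng) converts ^3H-acetyl-CoA plus malonyl-CoA to ^3H-palmitate in 100 mM KH2PO4 pH 7.5, 1 mM DTT; compounds tested at 0.01–30 μM. Product captured on streptavidin imaging beads and read by LEADseeker at 610 nm after ≥24 h; 4-parameter logistic fit versus controls.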

A2780 ovarian cells [6] = experiment: A2780 ovarian cell proliferation assay in lipid reduced medium, without palmitate (MTT); assay type: cell-based; conditions: Homo sapiens, A2780, 96 h; read-out: pIC50 A2780 Ovarian Cell, Without Palmitate (converted)

Fatty Acid Synthase Keto-reductase Domain (FASN KR), sequence (P49327 whole entry, the tested form may be a part): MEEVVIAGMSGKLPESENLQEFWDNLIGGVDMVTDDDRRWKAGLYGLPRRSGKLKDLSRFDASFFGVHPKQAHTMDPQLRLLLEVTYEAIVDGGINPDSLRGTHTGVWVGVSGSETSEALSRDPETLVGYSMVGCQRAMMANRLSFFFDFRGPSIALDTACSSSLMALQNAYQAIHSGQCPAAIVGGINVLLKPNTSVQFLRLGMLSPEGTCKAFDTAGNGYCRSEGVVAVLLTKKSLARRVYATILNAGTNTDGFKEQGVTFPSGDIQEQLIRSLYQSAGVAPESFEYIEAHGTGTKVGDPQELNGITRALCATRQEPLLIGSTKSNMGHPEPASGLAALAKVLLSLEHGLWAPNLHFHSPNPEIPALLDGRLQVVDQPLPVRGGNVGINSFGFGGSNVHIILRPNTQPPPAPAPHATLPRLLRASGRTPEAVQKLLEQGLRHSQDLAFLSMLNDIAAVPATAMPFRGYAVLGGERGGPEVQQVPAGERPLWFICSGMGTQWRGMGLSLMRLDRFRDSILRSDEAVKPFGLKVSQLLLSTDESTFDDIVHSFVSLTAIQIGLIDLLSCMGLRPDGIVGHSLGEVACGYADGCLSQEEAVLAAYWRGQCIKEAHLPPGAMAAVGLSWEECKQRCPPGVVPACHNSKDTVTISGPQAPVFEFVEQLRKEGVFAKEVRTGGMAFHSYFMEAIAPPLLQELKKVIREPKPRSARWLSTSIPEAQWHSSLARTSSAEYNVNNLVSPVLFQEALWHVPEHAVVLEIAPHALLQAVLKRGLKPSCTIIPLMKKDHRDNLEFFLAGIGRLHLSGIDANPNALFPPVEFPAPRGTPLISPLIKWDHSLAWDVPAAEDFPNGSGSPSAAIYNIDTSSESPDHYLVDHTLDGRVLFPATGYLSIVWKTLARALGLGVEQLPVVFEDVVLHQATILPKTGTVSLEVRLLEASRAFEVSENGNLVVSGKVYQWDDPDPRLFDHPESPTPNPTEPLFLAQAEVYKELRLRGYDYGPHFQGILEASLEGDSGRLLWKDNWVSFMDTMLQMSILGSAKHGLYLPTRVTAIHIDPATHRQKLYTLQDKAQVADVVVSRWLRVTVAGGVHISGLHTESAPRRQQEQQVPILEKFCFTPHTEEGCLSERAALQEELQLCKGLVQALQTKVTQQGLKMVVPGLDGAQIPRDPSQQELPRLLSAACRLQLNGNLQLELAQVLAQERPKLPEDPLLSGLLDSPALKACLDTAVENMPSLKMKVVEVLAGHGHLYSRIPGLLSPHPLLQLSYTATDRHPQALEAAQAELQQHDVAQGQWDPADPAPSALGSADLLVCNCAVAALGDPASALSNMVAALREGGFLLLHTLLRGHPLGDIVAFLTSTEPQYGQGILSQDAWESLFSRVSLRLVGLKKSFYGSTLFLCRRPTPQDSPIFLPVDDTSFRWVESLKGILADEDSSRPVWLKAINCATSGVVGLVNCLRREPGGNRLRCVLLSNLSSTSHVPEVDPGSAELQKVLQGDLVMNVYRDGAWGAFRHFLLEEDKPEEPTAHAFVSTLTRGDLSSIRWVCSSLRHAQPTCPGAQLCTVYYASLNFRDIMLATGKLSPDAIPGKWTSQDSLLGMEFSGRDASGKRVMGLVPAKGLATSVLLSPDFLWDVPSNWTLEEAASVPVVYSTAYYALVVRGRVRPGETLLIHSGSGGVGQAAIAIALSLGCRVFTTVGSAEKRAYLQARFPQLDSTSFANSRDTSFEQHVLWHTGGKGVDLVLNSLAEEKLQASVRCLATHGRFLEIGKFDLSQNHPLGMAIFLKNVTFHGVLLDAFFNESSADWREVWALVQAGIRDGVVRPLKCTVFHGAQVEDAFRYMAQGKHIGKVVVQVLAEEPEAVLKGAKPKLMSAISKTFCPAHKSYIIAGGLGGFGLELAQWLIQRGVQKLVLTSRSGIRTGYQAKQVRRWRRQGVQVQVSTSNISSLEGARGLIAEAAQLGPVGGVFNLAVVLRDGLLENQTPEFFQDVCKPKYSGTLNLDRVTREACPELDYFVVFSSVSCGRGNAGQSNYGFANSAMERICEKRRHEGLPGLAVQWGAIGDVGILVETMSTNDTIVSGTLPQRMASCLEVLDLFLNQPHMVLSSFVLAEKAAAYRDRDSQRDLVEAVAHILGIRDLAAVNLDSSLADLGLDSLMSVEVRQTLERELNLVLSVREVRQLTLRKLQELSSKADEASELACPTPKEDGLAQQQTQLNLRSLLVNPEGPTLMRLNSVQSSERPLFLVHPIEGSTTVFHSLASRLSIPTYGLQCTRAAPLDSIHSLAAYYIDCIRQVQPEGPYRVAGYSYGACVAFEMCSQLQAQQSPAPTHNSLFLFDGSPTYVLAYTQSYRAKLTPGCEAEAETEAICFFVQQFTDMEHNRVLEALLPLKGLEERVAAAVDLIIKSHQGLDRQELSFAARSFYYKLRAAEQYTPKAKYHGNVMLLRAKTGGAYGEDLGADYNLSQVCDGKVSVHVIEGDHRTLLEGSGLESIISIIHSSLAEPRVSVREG
T1 sequence (P49327 whole entry): as the sequence (P49327 whole entry, the tested form may be a part) above

Structure (SMILES) | IC50 [1] | IC50 [2] | IC50 (A2780 ovarian cells [3]) | IC50 [4] | inhibition at 10 µM [5] | IC50 [5] | IC50 (A2780 ovarian cells [6])
O=C(C1CC1)N1CC(CN2C(=O)C3(CC3)N=C2c2ccc(-c3nc4cc(F)c(F)cc4s3)cc2F)C1 [compound 639, 6-{[1-(Cyclopropylcarbonyl)azetidin-3-yl]methyl}-5-[4-(5,6-difluoro-1,3-benzothiazol-2-yl)-2-fluorophenyl]-4,6-diazaspiro[2.4]hept-4-en-7-one] | 0.794 µM | 1.45 µM | > 10 µM | 2.34 µM | 97% | 0.282 µM | ~0.363 µM
Cc1cc(-c2ccc3cc[nH]c3c2)ccc1C1=NC2(CC2)C(=O)N1CC1CN(C(=O)C2CC2)C1 [compound 303, 5-(4-(1H-indol-6-yl)-2-methylphenyl)-6-((1-(cyclopropancarbonyl)azetidin-3-yl)methyl)-4,6-diazaspiro[2.4]hept-4-en-7-one] | 0.0398 µM | 0.0692 µM | > 6.17 µM | ~0.912 µM | 102% | 0.0309 µM | 0.0288 µM
CC(C)n1cc(-c2ccc(-c3ccc(C4=NC5(CC5)C(=O)N4CC4CN(C(=O)C5CC5)C4)cc3)cc2)cn1 [compound 331] | 0.148 µM | 0.245 µM | 5.62 µM | 0.617 µM | 100% | 0.0661 µM | 0.0692 µM
Cc1cc(-c2ccc3oc(C#N)cc3c2)ccc1C1=NC2(CC2)C(=O)N1C[C@@H]1CCN(C(=O)C2CC2)C1 [compound 255, (R)-5-(4-(6-((1-(cyclopropanecarbonyl)pyrrolidin-3-yl)methyl)-7-oxo-4,6-diazaspiro[2.4]hept-4-en-5-yl)-3-methylphenyl)benzofuran-2-carbonitrile] | ~0.525 µM | 0.0832 µM | > 10 µM | 1.12 µM | 99% | 0.0631 µM | ~0.977 µM
O=C(C1CC1)N1CC[C@@H](CN2C(=O)C3(CCCC3)N=C2c2ccc(-c3ccc4[nH]c(=O)[nH]c4c3)cc2F)C1 [compound 885, (R)-5-(4-(3-((1-(cyclopropanecarbonyl)pyrrolidin-3-yl)methuyl)-4-oxo-1,3-diazaspiro[4.4]non-1-en-2-yl)-3-fluorophenyl)-1H-benzo[d]imidazol-2(3H)-one] | ~2.63 µM | 0.49 µM | > 10 µM | > 10 µM | 98% | 0.309 µM | ~2.24 µM
O=C(C1CC1)N1CC(CN2C(=O)C3(CC3)N=C2c2ccc(-c3nc4ccc(Cl)cc4o3)cc2F)C1 [compound 649, 5-[4-(6-Chloro-1,3-benzoxazol-2-yl)-2-fluorophenyl]-6-{[1-(cyclopropylcarbonyl)azetidin-3-yl]methyl}-4,6-diazaspiro[2.4]hept-4-en-7-one] | 0.437 µM | 0.372 µM | 7.41 µM | 1.74 µM | 97% | 0.158 µM | 0.2 µM
COc1nccc2cc(-c3ccc(C4=NC5(CC5)C(=O)N4C[C@@H]4CCN(C(=O)C5CC5)C4)cc3)ccc12 [compound 468, 6-{[(3R)-1-(Cyclopropylcarbonyl)pyrrolidin-3-yl]methyl}-5-[4-(1-methoxyisoquinolin-6-yl)phenyl]-4,6-diazaspiro[2.4]hept-4-en-7-one] | 0.55 µM | 1.58 µM | > 10 µM | 2.04 µM | 90% | 0.427 µM | 0.661 µM
COCCN1CCC2(CC1)N=C(c1ccc(-c3ccc4c(cnn4C)c3)cc1)N(C[C@@H]1CCN(C(=O)C3CC3)C1)C2=O [compound 750, 3-{[(3R)-1-(Cyclopropylcarbonyl)pyrrolidin-3-yl]methyl}-8-(2-methoxyethyl)-2-[4-(1-methyl-1H-indazol-5-yl)phenyl]-1,3,8-triazaspiro[4.5]dec-1-en-4-one] | 0.589 µM | 1.15 µM | > 10 µM | 3.16 µM | 94% | 0.309 µM | 0.676 µM
O=C(C1CC1)N1CC[C@@H](CN2C(=O)C3(CC3)N=C2c2ccc(-c3ccc(F)c(Cl)c3)cc2)C1 [compound 209, (R)-5-(3-chloro-4-fluoro-[1,1-biphenyl]-4-yl)-6-((1-(cyclopropanecarbonyl)pyrrolidin-3-yl)methyl)-4,6-diazaspiro[2.4]hept-4-en-7-one] | ~0.776 µM | 0.257 µM | > 10 µM | 4.17 µM | 108% | 0.0891 µM | 1.86 µM

Compounds with a lower IC50 [2], results first:

IC50 [1] | IC50 [2] | IC50 (A2780 ovarian cells [3]) | IC50 [4] | inhibition at 10 µM [5] | IC50 [5] | IC50 (A2780 ovarian cells [6]) | Structure (SMILES)
0.0251 µM | 0.0603 µM | > 10 µM | 0.123 µM | 103% | 0.0437 µM | ~0.0214 µM | Cc1cc(-c2ccc3[nH]ncc3c2)ccc1C1=NC2(CC2)C(=O)N1C[C@@H]1CCN(C(=O)C2CC2)C1 [compound 286, (R)-5-(4-(1H-indazol-5-yl)-2-methylphenyl)-6-((1-(cyclopropanecarbonyl)pyrrolidin-3-yl)methyl)-4,6-diazaspiro[2.4]hept-4-en-7-one]
~0.00245 µM | 0.0275 µM | > 10 µM | 0.00501 µM | 102% | 0.02 µM | ~0.00107 µM | Cn1cc(-c2ccc(-c3ccc(C4=NC5(CC5)C(=O)N4C[C@@H]4CCN(C(=O)C5(O)CC5)C4)c(F)c3)cc2)cn1 [compound 379, (R)-5-(3-fluoro-4′-(1-methyl-1H-pyrazol-4-yl)-[1,1′-biphenyl]-4-yl)-6-((1-(1-hydroxycyclopropanecarbonyl)pyrrolidin-3-yl)methyl)-4,6-diazaspiro[2.4]hept-4-en-7-one]
0.0501 µM | ~0.0269 µM | 6.46 µM | 0.251 µM | 102% | 0.0257 µM | 0.0251 µM | O=C(C1CC1)N1CC(CN2C(=O)C3(CC3)N=C2c2ccc(-c3ccc4cc(Cl)ccc4c3)cc2F)C1 [compound 320, 5-(4-(6-chloronaphthalen-2-yl)-2-fluorophenyl)-6-((1-(cyclopropanecarbonyl)azetidin-3-yl)methyl)-4,6-diazaspiro[2.4]hept-4-en-7-one]
~0.00589 µM | 0.024 µM | > 10 µM | 0.0219 µM | 98% | 0.0234 µM | 0.00234 µM | N#Cc1ccc2cc(-c3ccc(C4=NC5(CC5)C(=O)N4CC4CN(C(=O)C5CCO5)C4)c(F)c3)ccc2c1 (centres unmarked) [compound 226, 6-(3-fluoro-4-(6-((1-(oxetane-2-carbonyl)azetidin-3-yl)methyl)-7-oxo-4,6-diazaspiro[2..4]hept-4-en-5-yl)phenyl)-2-naphthonitrile]
~0.646 µM | 0.0355 µM | > 10 µM | ~1.58 µM | 103% | 0.0191 µM | ~0.724 µM | Cc1cc2cc(-c3ccc(C4=NC5(CC5)C(=O)N4C[C@@H]4CCN(C(=O)C5CC5)C4)c(F)c3)ccc2o1 [compound 242, (R)-6-((1-(cyclopropanecarbonyl)pyrrolidin-3-yl)methyl)-5-(2-fluoro-4-(2-methylbenzofuran-5-yl)phenyl)-4,6-diazaspiro[2.4]hept-4-en-7-one]
